Assay results reported in the Kinase Knowledgebase extract (Sharma et al. 2016).

molecular target: MAPK14 (UniProt Q16539); assay: Inhibition of MAPK14 Kinase Activity
Sequence (Q16539 whole entry, looked up): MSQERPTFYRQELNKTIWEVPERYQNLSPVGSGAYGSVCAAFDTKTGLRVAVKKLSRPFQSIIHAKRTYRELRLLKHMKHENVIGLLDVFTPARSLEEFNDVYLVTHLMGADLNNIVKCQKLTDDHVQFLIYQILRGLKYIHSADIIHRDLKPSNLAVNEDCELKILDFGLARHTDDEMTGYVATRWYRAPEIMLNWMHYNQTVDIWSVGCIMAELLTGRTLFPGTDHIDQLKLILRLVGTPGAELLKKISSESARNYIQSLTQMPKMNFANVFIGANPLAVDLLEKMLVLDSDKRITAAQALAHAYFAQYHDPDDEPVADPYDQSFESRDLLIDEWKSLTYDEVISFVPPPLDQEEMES

IC50 [µM]	Structure (SMILES)
< 10	Cc1ccc(C(=O)Nc2nccs2)cc1-c1ccc(C(=O)NCC2CC2)cn1
< 10	Cc1c(F)cc(C(=O)NC2CC2)cc1-c1ccc(C(=O)NCc2ccccc2F)cn1
< 10	CCC1(CC)CN(C(=O)c2ccc(-c3cc(C(=O)NC4CC4)cc(F)c3C)nc2)C1
< 10	COc1cccc(CNC(=O)c2ccc(-c3cc(C(=O)Nc4nccs4)ccc3C)nc2)c1
< 10	CCCNC(=O)c1ccc(-c2cc(C(=O)NC3CC3)cc(F)c2C)nc1
< 10	Cc1ccc(C(=O)Nc2cccc(-c3ccccn3)c2)cc1-c1ccc(C(=O)NCC2CC2)cn1
< 10	Cc1ccc(C(=O)NCC2CC2)cc1-c1ccc(C(=O)NCC2CC2)cn1
< 10	Cc1c(F)cc(C(=O)NC2CC2)cc1-c1ccc(C(=O)NCc2c(F)ccc(Cl)c2F)cn1
< 10	Cc1c(F)cc(C(=O)NC2CC2)cc1-c1ccc(C(=O)NCCc2nccs2)cn1
< 10	Cc1c(F)cc(C(=O)NC2CC2)cc1-c1ccc(C(=O)NC(C)CC(C)C)cn1 (configuration not stated)
< 10	Cc1c(F)cc(C(=O)NC2CC2)cc1-c1ccc(C(=O)NC2CC2(C)C)cn1 (configuration not stated)
< 10	Cc1c(F)cc(C(=O)NC2CC2)cc1-c1ccc(C(=O)NCc2ccccc2)cn1
< 10	Cc1c(F)cc(C(=O)NC2CC2)cc1-c1ccc(C(=O)NC(C)Cc2nccs2)cn1 (configuration not stated)
< 10	CCNC(=O)c1ccc(-c2cc(C(=O)NC3CC3)cc(F)c2C)nc1
< 10	Cc1c(F)cc(C(=O)NC2CC2)cc1-c1ccc(C(=O)NCc2ccc(F)c(Cl)c2)cn1
< 10	Cc1c(F)cc(C(=O)NC2CC2)cc1-c1ccc(C(=O)NC2CC2)cn1
< 10	COc1cccc(CNC(=O)c2ccc(-c3cc(NC(=O)c4ccoc4)ccc3C)nc2)c1
< 10	Cc1c(F)cc(C(=O)NC2CC2)cc1-c1ccc(C(=O)NC2CCC2)cn1
< 10	Cc1c(F)cc(C(=O)NC2CC2)cc1-c1ccc(C(=O)NCc2cccc(F)c2F)cn1
< 10	CCCC(C)(C)NC(=O)c1ccc(-c2cc(C(=O)NC3CC3)cc(F)c2C)nc1
< 10	COc1ccc(NC(=O)c2ccc(-c3cc(C(=O)NCC4CC4)ccc3C)nc2)cc1
< 10	Cc1c(F)cc(C(=O)NC2CC2)cc1-c1ccc(C(=O)NCCc2ccccc2)cn1
< 10	Cc1c(F)cc(C(=O)NC2CC2)cc1-c1ccc(C(=O)NCC2CCCCC2)cn1
< 10	Cc1ccc(C(=O)Nc2nccs2)cc1-c1ccc(C(=O)Nc2ccccc2CN2CCN(C)CC2)cn1
< 10	COc1ccc(NC(=O)c2ccc(-c3cc(C(=O)NC4CC4)ccc3C)nc2)cc1

IC50 [µM]	Structure (SMILES)
< 10	Cc1c(F)cc(C(=O)NC2CC2)cc1-c1ccc(C(=O)NCC(F)c2ccccc2)cn1 (configuration not stated)
< 10	Cc1ccc(NC(=O)c2ccoc2)cc1-c1ccc(C(=O)NCc2cccc(NS(C)(=O)=O)c2)cn1
< 10	Cc1ccc(NC(=O)c2ccsc2)cc1-c1ccc(C(=O)Nc2ccccc2CN2CCN(C)CC2)cn1
< 10	Cc1ccc(NC(=O)c2ccc(-c3cc(C(=O)NC4CC4)cc(F)c3C)nc2)cc1
< 10	Cc1c(F)cc(C(=O)NC2CC2)cc1-c1ccc(C(=O)NCc2nccs2)cn1
< 10	Cc1c(F)cc(C(=O)NC2CC2)cc1-c1ccc(C(=O)NCCC(C)C)cn1
< 10	Cc1c(F)cc(C(=O)NC2CC2)cc1-c1ccc(C(=O)NCc2cc(F)c(F)cc2F)cn1
< 10	Cc1cccc(CNC(=O)c2ccc(-c3cc(C(=O)NC4CC4)cc(F)c3C)nc2)c1
< 10	COc1ccc(NC(=O)c2ccc(-c3cc(NC(=O)c4ccoc4)ccc3C)nc2)cc1
< 10	Cc1c(F)cc(C(=O)NC2CC2)cc1-c1ccc(C(=O)N2CCCC(C)C2C)cn1 (configuration not stated)
< 10	CCC(C)(CC)NC(=O)c1ccc(-c2cc(C(=O)NC3CC3)cc(F)c2C)nc1
< 10	COc1ccc(NC(=O)c2ccc(-c3cc(C(=O)Nc4nncs4)ccc3C)nc2)cc1
< 10	CCCC(O)C(C)NC(=O)c1ccc(-c2cc(C(=O)NC3CC3)cc(F)c2C)nc1 (configuration not stated)
< 10	Cc1c(F)cc(C(=O)NC2CC2)cc1-c1ccc(C(=O)NCc2c(F)ccc(F)c2Cl)cn1
< 10	COc1cccc(CNC(=O)c2ccc(-c3cc(NC(=O)c4ccsc4)ccc3C)nc2)c1
< 10	Cc1ccc(C(=O)NCC2CC2)cc1-c1ccc(C(=O)NCc2cccc(NS(C)(=O)=O)c2)cn1
< 10	Cc1c(F)cc(C(=O)NC2CC2)cc1-c1ccc(C(=O)N(C)C2(C)CCCC2)cn1
< 10	Cc1c(F)cc(C(=O)NC2CC2)cc1-c1ccc(C(=O)NCC2CCC2)cn1
< 10	Cc1ccc(C(=O)NCC2CC2)cc1-c1ccc(C(=O)Nc2ccccc2CN2CCN(C)CC2)cn1
< 10	CCN(C(=O)c1ccc(-c2cc(C(=O)NC3CC3)cc(F)c2C)nc1)C1CCCCC1
< 10	Cc1ccc(C(=O)Nc2nccs2)cc1-c1ccc(C(=O)NCc2cccc(NS(C)(=O)=O)c2)cn1
< 10	Cc1c(F)cc(C(=O)NC2CC2)cc1-c1ccc(C(=O)NCc2cccc(Cl)c2F)cn1
< 10	Cc1c(F)cc(C(=O)NC2CC2)cc1-c1ccc(C(=O)NCc2ccccc2Cl)cn1
< 10	Cc1c(F)cc(C(=O)NC2CC2)cc1-c1ccc(C(=O)N2CCC(C)C2(C)C)cn1 (configuration not stated)
< 10	CCC1CCCN(C(=O)c2ccc(-c3cc(C(=O)NC4CC4)cc(F)c3C)nc2)C1 (configuration not stated)

IC50 [µM]	Structure (SMILES)
< 10	Cc1ccc(NC(=O)c2ccsc2)cc1-c1ccc(C(=O)NCc2cccc(NS(C)(=O)=O)c2)cn1
< 10	Cc1ccc(NC(=O)c2ccoc2)cc1-c1ccc(C(=O)NCC2CC2)cn1
< 10	Cc1c(F)cc(C(=O)NC2CC2)cc1-c1ccc(C(=O)NCc2ccc(F)c(F)c2F)cn1
< 10	Cc1c(F)cc(C(=O)NC2CC2)cc1-c1ccc(C(=O)NCCC(F)(F)F)cn1
< 10	Cc1ccc(C(=O)NC2CC2)cc1-c1ccc(C(=O)NCc2cccc(NS(C)(=O)=O)c2)cn1
< 10	Cc1csc(CNC(=O)c2ccc(-c3cc(C(=O)NC4CC4)cc(F)c3C)nc2)n1
< 10	Cc1c(F)cc(C(=O)NC2CC2)cc1-c1ccc(C(=O)NCc2cccc(Cl)c2)cn1
< 10	Cc1c(F)cc(C(=O)NC2CC2)cc1-c1ccc(C(=O)NCc2ccc(C(F)(F)F)cc2)cn1
< 10	Cc1cccc(NC(=O)c2ccc(-c3cc(C(=O)NC4CC4)cc(F)c3C)nc2)c1
< 10	COCCNC(=O)c1ccc(-c2cc(C(=O)NC3CC3)cc(F)c2C)nc1
< 10	Cc1c(F)cc(C(=O)NC2CC2)cc1-c1ccc(C(=O)N2CCC(C)CC2)cn1
< 10	Cc1c(F)cc(C(=O)NC2CC2)cc1-c1ccc(C(=O)N(C)C(C)C)cn1
< 10	Cc1c(F)cc(C(=O)NC2CC2)cc1-c1ccc(C(=O)NCc2ccc(Cl)cc2F)cn1
< 10	Cc1ccsc1CNC(=O)c1ccc(-c2cc(C(=O)NC3CC3)cc(F)c2C)nc1
< 10	Cc1c(F)cc(C(=O)NC2CC2)cc1-c1ccc(C(=O)N2CCC(C)CC2C)cn1 (configuration not stated)
< 10	Cc1ccccc1CNC(=O)c1ccc(-c2cc(C(=O)NC3CC3)cc(F)c2C)nc1
< 10	COc1ccc(NC(=O)c2ccc(-c3cc(C(=O)Nc4nccs4)ccc3C)nc2)cc1
< 10	CCC1(C)CCCCN1C(=O)c1ccc(-c2cc(C(=O)NC3CC3)cc(F)c2C)nc1 (configuration not stated)
< 10	CCCC(O)C(C)(C)NC(=O)c1ccc(-c2cc(C(=O)NC3CC3)cc(F)c2C)nc1 (configuration not stated)
< 10	CCCC(C)NC(=O)c1ccc(-c2cc(C(=O)NC3CC3)cc(F)c2C)nc1 (configuration not stated)
< 10	Cc1ccc(NC(=O)c2ccoc2)cc1-c1ccc(C(=O)Nc2ccccc2CN2CCN(C)CC2)cn1
< 10	Cc1c(F)cc(C(=O)NC2CC2)cc1-c1ccc(C(=O)NC(C)C2CC2)cn1 (configuration not stated)
< 10	CCC1CC1CNC(=O)c1ccc(-c2cc(C(=O)NC3CC3)cc(F)c2C)nc1 (configuration not stated)
< 10	CCCC1CCCCN1C(=O)c1ccc(-c2cc(C(=O)NC3CC3)cc(F)c2C)nc1 (configuration not stated)
< 10	Cc1c(F)cc(C(=O)NC2CC2)cc1-c1ccc(C(=O)N(C)CCC2CCCC2)cn1

IC50 [µM]	Structure (SMILES)
< 10	Cc1c(F)cc(C(=O)NC2CC2)cc1-c1ccc(C(=O)NCc2ccc(F)cc2F)cn1
< 10	Cc1c(F)cc(C(=O)NC2CC2)cc1-c1ccc(C(=O)N2CCCC(C)C2)cn1 (configuration not stated)
< 10	Cc1ccc(NC(=O)c2ccnc(N3CCCC3)c2)cc1-c1ccc(C(=O)NCC2CC2)cn1
< 10	Cc1c(F)cc(C(=O)NC2CC2)cc1-c1ccc(C(=O)NCC2CCCC2)cn1
< 10	Cc1c(F)cc(C(=O)NC2CC2)cc1-c1ccc(C(=O)N(C)C2CCCC2)cn1
< 10	Cc1c(F)cc(C(=O)NC2CC2)cc1-c1ccc(C(=O)NCc2ccccc2C(F)(F)F)cn1
< 10	Cc1csc(CCNC(=O)c2ccc(-c3cc(C(=O)NC4CC4)cc(F)c3C)nc2)n1
< 10	Cc1c(F)cc(C(=O)NC2CC2)cc1-c1ccc(C(=O)NCc2cc(F)ccc2F)cn1
< 10	Cc1ccc(C(=O)NC2CC2)cc1-c1ccc(C(=O)Nc2ccccc2CN2CCN(C)CC2)cn1
< 10	Cc1c(F)cc(C(=O)NC2CC2)cc1-c1ccc(C(=O)NCCOC(C)(C)C)cn1
< 10	Cc1c(F)cc(C(=O)NC2CC2)cc1-c1ccc(C(=O)NCc2cccc(F)c2)cn1
< 10	Cc1c(F)cc(C(=O)NC2CC2)cc1-c1ccc(C(=O)NC2CCCC2)cn1
< 10	Cc1c(F)cc(C(=O)NC2CC2)cc1-c1ccc(C(=O)NCCC(C)(C)C)cn1
< 10	Cc1ccc(F)cc1CNC(=O)c1ccc(-c2cc(C(=O)NC3CC3)cc(F)c2C)nc1
< 10	Cc1c(F)cc(C(=O)NC2CC2)cc1-c1ccc(C(=O)NCc2ccc(F)c(F)c2)cn1
< 10	Cc1ccc(C(=O)Nc2nncs2)cc1-c1ccc(C(=O)NCc2cccc(NS(C)(=O)=O)c2)cn1
< 10	CC(C)=CCNC(=O)c1ccc(-c2cc(C(=O)NC3CC3)cc(F)c2C)nc1
< 10	Cc1c(F)cc(C(=O)NC2CC2)cc1-c1ccc(C(=O)NCc2cccc(C(F)(F)F)c2)cn1
< 10	COc1cccc(CNC(=O)c2ccc(-c3cc(C(=O)NCC4CC4)ccc3C)nc2)c1
< 10	Cc1ccc(CNC(=O)c2ccc(-c3cc(C(=O)NC4CC4)cc(F)c3C)nc2)cc1
< 10	Cc1ccc(NC(=O)c2ccsc2)cc1-c1ccc(C(=O)NCC2CC2)cn1
< 10	Cc1c(F)cc(C(=O)NC2CC2)cc1-c1ccc(C(=O)N2CCCC(C)(C)C2)cn1
